Assay results taken from patent US20110158969A1, “COMPOSITIONS AND METHODS FOR USING STROMAL CELLS TO ENHANCE TREATMENT OF CENTRAL NERVOUS SYSTEM INJURIES” (HENRY FORD HEALTH SYSTEM, priority 2008, published 2011).

Legend:
[1] = system: Rat Intracerebral Hemorrhage (ICH) Model; assay: Corner turn test in rat ICH model; type: in vivo; details: end of second week (day 14) after ICH; vs human fibroblast control group; P<0.05 significant
Procedure: (§1) Functional neurological tests. Functional neurological outcomes were measured by the neurological severity score test (NSS) (Chen et al., 2001) and the corner turn test (Zhang et al., 2002), as previously described in Seyfried et al., 2006. Statistical analysis. Statistical analysis of functional scores was performed using the Student's two-tailed t-test for independent samples.

[2] = system: BrdU-positive cells in the boundary around the lesion; assay: BrdU immunostaining, proliferating cells around the lesion; type: in vivo, rat; details: 14 days after ICH; vs control group; P<0.05
Rat ICH Model = assay: Striatal tissue loss (H & E staining, image analysis) in rat ICH model; type: in vivo; details: 14 days after ICH; relative to contralateral striatum; mean±standard error; mannitol 1.5 g/kg iv, 1 million cells intraarterial
Procedure: Thirty-six male Wistar rats weighing from 270 to 320 grams were used for intracerebral hemorrhage studies. Stereotactic stabilization and localization were used in the rats under general anesthesia as previously described (Seyfried et al., 2006). ICH was induced by injecting 100 μl of autologous blood, obtained from the femoral vein, into the right striatum at a steady infusion rate of 10 μl per minute (Seyfried et al., 2004). Twenty four hours after ICH, the animals were divided into four experimental groups. Group 1 received only intraarterial (via internal carotid artery) injection of 1 million human primary fibroblasts in phosphate-buffered saline (PBS) as a control. Group 2 received intravenous injection of mannitol at a dose of 1.5 g/kg in PBS via the tail vein. Group 3 received intraarterial (internal carotid artery) injection of 1 million hBMSCs in PBS. Group 4 received intravenous injection of mannitol at a dose of 1.5 g/kg followed 10 minutes later by intraarterial injection of 1 million hBMSCs in PBS. All treatments were administered 24 hours after induction of ICH. All rats also received a daily intraperitoneal injection of 100 mg/kg BrdU starting at day 1 after ICH for 14 days.
Histology and immunohistochemistry. […] Percentage of the striatal tissue loss compared to the contralateral striatum was calculated using an image analysis system (Data Translation, Marlboro, Mass.). […]

[3] = system: Rat Intracerebral Hemorrhage (ICH) Model; assay: Neurological severity score (NSS) test in rat ICH model; type: in vivo; details: end of second week (day 14) after ICH; vs human fibroblast control group; P<0.05 significant
Procedure: as §1

SMILES: OC[C@@H](O)[C@@H](O)[C@H](O)[C@H](O)CO [mannitol]
- functional neurological outcome assessed by corner turn test [1]: failed to show any statistically significant neurological improvement
- BrdU positive staining cells around the injured site [2]: significantly increased the BrdU labeling
- percentage loss of striatal tissues on the side of hemorrhage (Rat ICH Model): 25.9±1.75%
- functional neurological outcome assessed by NSS [3]: failed to show any statistically significant neurological improvement
